Experiments:
Assay type in all cases: in vivo
[1] = tested on: adult brown dog ticks (Rhipicephalus sanguineus); experiment: Rhipicephalus sanguineus in-vitro contact test, adult brown dog ticks; conditions: Rhipicephalus sanguineus; 1 μg/cm^2 (=100 g/ha), after 48 hours; read-out: efficacy (ticks dead or moribund)
Procedure, shortened: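 Acetone solution (900 ppm giving 5 μg/cm²) coated on inner walls of glass tubes; after drying, 5-10 adult ticks added and held at room temperature 48 h. Ticks then placed on 45-50 °C plate ≤5 min; those unable to climb away scored dead/moribund, efficacy as % affected.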

[2] = tested on: adult mosquitoes Culex quinquefasciatus strain P00; experiment: Culex quinquefasciatus test (CULXFA surface treatment & contact assay); conditions: 24 hours after contact, read-out: efficacy (mortality); for mortality at 20 mg/m2: surface concentration 20 mg/m^2, 30 min exposure; for mortality at 4 mg/m2: surface concentration 4 mg/m^2, 30 min exposure
Method: Culex quinquefasciatus Test (CULXFA Surface Treatment & Contact Assay
(§1) Solvent: Aceton+2000 ppm rapeseed oil methyl ester (RME)
In order to produce a sufficient, active ingredient containing solution it is necessary to solve the test compound in the solvent-mix (acetone at 2 mg/ml/RME 2000 ppm). This solution is pipetted onto a glazed tile and after evaporation of the acetone, adult mosquitoes of the species Culex quinquefasciatus strain P00 are placed onto the dried surface. The exposure time is 30 minutes. Mortality in percent (%) is determined 24 hours after contact of the insects to the treated surface. 100% mortality means that all tested insects are dead, whereas 0% means that no insect died.

[3] = tested on: green peach aphid (Myzus persicae); experiment: Myzus persicae spray test (MYZUPE); conditions: in Brassica rapa, foliar, 120 h
Procedure, shortened: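 Chinese cabbage leaf disks infested with all instars of M. persicae sprayed with compound (acetone/DMF solvent, water with 1000 ppm alkylarylpolyglycol ether emulsifier) at the desired concentration. Percent mortality determined after 5 days; 100% = all aphids killed.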

[4] = tested on: fall armyworm larvae (Spodoptera frugiperda); experiment: Spodoptera frugiperda spray test (SPODFR); conditions: 168 h; for mortality at 100 g/ha: in Zea mays
Procedure, shortened: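 Compound in acetone/dimethylformamide, diluted with water containing 1000 ppm alkylarylpolyglycol ether emulsifier. Maize leaf sections sprayed, dried, then infested with fall armyworm larvae. Mortality (%) scored after 7 days, 100% meaning all caterpillars killed.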

[5] = tested on: adult unfed cat fleas (Ctenocephalides felis); experiment: Ctenocephalides felis oral test; conditions: 48 h, 100 ppm in citrated cattle blood, after 2 days
Method: Ctenocephalides felis—Oral Test
Solvent: Dimethyl Sulfoxide
To produce a suitable preparation of active compound, 10 mg of active compound are dissolved in 0.5 mL solvent, and the concentrate is diluted with citrated cattle blood to the desired concentration.
Approximately 20 adult unfed cat fleas (Ctenocephalides felis) are placed in a flea chamber whose top and bottom is covered with gauze. A chamber whose bottom is sealed with parafilm, is filled with the blood-compound solution and placed on top of the flea chamber, so that the fleas can suck the blood. The blood chamber is heated to 37° C. whereas the flea chamber is kept at room temperature.
After 2 days mortality in % is determined. 100% means all the fleas have been killed; 0% means none of the fleas have been killed.

[6] = tested on: adult Blattella germanica strain PAULINIA; experiment: Blattella germanica test (BLTTGE surface treatment & contact assay); conditions: 24 hours after contact, read-out: efficacy (mortality); for mortality at 20 mg/m2: surface concentration 20 mg/m^2, 30 min exposure; for mortality at 4 mg/m2: surface concentration 4 mg/m^2, 30 min exposure
Method: Blattella germanica Test (BLTTGE Surface Treatment & Contact Assay
as §1
In order to produce a sufficient, active ingredient containing solution it is necessary to solve the test compound in the solvent-mix (acetone at 2 mg/ml/RME 2000 ppm). This solution is pipetted onto a glazed tile and after evaporation of the acetone, adult animals of the species Blattella germanica strain PAULINIA are placed onto the dried surface. The exposure time is 30 minutes.
Mortality in percent (%) is determined 24 hours after contact of the insects to the treated surface. 100% mortality means that all tested insects are dead, whereas 0% means that no insect died.

[7] = tested on: Rhipicephalus (Boophilus) microplus larvae (strain Parkhurst, resistant against synthetic pyrethroids); experiment: Rhipicephalus (Boophilus) microplus in-vitro contact test, larval cattle tick; conditions: Rhipicephalus microplus; 1 μg/cm^2 (=100 g/ha), after 48 hours; read-out: efficacy (larvae dead or moribund)
Procedure, shortened: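 Compound in acetone coated on glass tube inner walls; 900 ppm solution gives 5 μg/cm^2. Pyrethroid-resistant Parkhurst larvae (20-50 per tube) held at 27° C., 85% relative humidity; efficacy assessed after 48 h by scoring negative geotactic behavior after tapping larvae to tube bottom.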

[8] = tested on: larvae of the banded cucumber beetle (Diabrotica balteata); experiment: Diabrotica balteata spray test; conditions: Diabrotica balteata, 168 h; 100 g/ha (=32 μg/well), wheat seeds, after 7 days; read-out: efficacy (seedlings grown)
Procedure, shortened: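 Germinated wheat seedlings (5 per well, on agar) sprayed with compound in acetone/DMF with emulsifier-containing water, then infested with 10–20 Diabrotica balteata larvae. Efficacy (%) scored after 7 days from seedling growth: 100% = growth as untreated uninfested control, 0% = no seedlings grown.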

Structure (SMILES) | pest or weed control at 1 µg/cm2, 100 g/ha [1] | mortality at 20 mg/m2 [2] | mortality at 100 g/ha [3] | Emax at 4 g/ha ([4]; SPODFR, 4 g ai/ha, 7 dat, read-out: % Efficacy) | Emax at 20 g/ha ([4]; SPODFR, 20 g ai/ha, 7 dat, read-out: % Efficacy) | Emax at 100 g/ha ([4]; SPODFR, 100 g ai/ha, 7 dat, read-out: % Efficacy) | mortality at 100 g/ha [4] | mortality at 100 ppm [5] | mortality at 20 mg/m2 [6] | pest or weed control at 1 µg/cm2 [7] | pest or weed control at 32 µg/disc, 100 g/ha [8] | mortality at 4 mg/m2 [2] | mortality at 4 mg/m2 [6]
C[C@H](NC(=O)c1cc(OC(F)(F)F)cc(C2CC2)c1)c1ncnn1-c1cnc(C(=O)N(C)C)cn1 [Example I-002] | 100% | 80 to 100% | 90% | 100% | 100% | 100% | 100% | 100% | 80 to 100% | 100% | 100% |  | 
C[C@H](NC(=O)c1cc(C(F)(F)F)cc(C(F)(F)F)c1)c1ncnn1-c1cnc(C(=O)N(C)CC2CC2)cn1 [Example I-008] | 100% | 80 to 100% | 90% |  |  |  | 100% | 100% | 80 to 100% | 100% | 100% | 80 to 100% | 80 to 100%
C[C@H](NC(=O)c1cc(C(F)(F)F)cc(C(F)(F)F)c1)c1ncnn1-c1cnc(C(=O)N(C)C2CC2)cn1 [Example I-007] | 100% | 80 to 100% | 90% |  |  |  | 100% | 100% | 80 to 100% | 100% | 100% | 80 to 100% | 80 to 100%
CNC(=O)c1cnc(-n2ncnc2[C@H](C)NC(=O)c2cc(C(F)(F)F)cc(C(F)(F)F)c2)cn1 [Example I-009] | 100% | 80 to 100% | 90% |  |  |  | 100% | 100% | 80 to 100% | 100% |  | 80 to 100% | 80 to 100%
CNC(=O)c1cnc(-n2ncnc2[C@H](C)NC(=O)c2cc(OC(F)(F)F)cc(C3CC3)c2)cn1 [Example I-021] | 100% | 80 to 100% | 90% |  |  |  | 100% |  | 80 to 100% | 100% | 100% | 80 to 100% | 80 to 100%
